Patent US20250241879A1, “CAPSAICIN SEQUENTIAL DOSING METHOD FOR TREATMENT OF KNEE JOINT PAIN” (priority 2018, published 2025)

Legend:
[1] = system: osteoarthritic knee joint pain; assay: WOMAC B stiffness subscale (Example 2); format: in vivo, human; conditions: 1.0 mg dose; through week 16; P=0.007
Protocol: (§1) Human patients aged 45-80 years with chronic knee osteoarthritis, stable moderate to severe pain, and intolerability to analgesics were randomized to receive a single intra-articular injection of placebo into the osteoarthritic knee, a single intra-articular injection of a 0.5 mg dose of capsaicin into the osteoarthritic knee, or a single intra-articular injection of a 1.0 mg dose of capsaicin into the osteoarthritic knee.
(§2) Patients completed Patient Global Impression of Change (PGIC; change vs baseline in index knee on 7-point scale: 1=very much improved; 7=very much worse, with scores of 1 or 2 indicating significant improvement) and Patient-specific Functional Scale (PSFS; rate≤3 important activities difficult to perform due to index knee pain on 0-10 scale: 0=able to perform; 10=unable to perform) at scheduled visits. Odds ratios for PGIC scores were calculated with chi-square tests. Changes in Western Ontario and McMaster Universities Osteoarthritis Index (WOMAC) B stiffness subscale and WOMAC C function subscale through week 24 were also assessed. PSFS, WOMAC B, and WOMAC C scores were evaluated using a mixed model for repeated measures. Statistical tests were 2-sided (alpha, P=0.10).

[2] = system: osteoarthritic knee joint pain; assay: Patient Global Impression of Change (PGIC), index knee (Example 2); format: in vivo, human; conditions: for PGIC: proportion of patients reporting significant improvement in the index knee: week 4, placebo 44%
Protocol: as §1, §2

[3] = system: osteoarthritic knee joint pain; assay: Patient-specific Functional Scale (PSFS) (Example 2); format: in vivo, human
Protocol: as §1, §2

[4] = system: osteoarthritic knee joint pain; assay: WOMAC C function subscale (Example 2); format: in vivo, human; conditions: 1.0 mg dose; through week 16; P=0.02
Protocol: as §1, §2

[5] = system: human patients with bilateral knee osteoarthritis; assay: Procedure pain (NPRS) due to intraarticular trans-capsaicin, Breg pad vs ice pack cooling (Example 7); format: in vivo; conditions: Breg Knee WrapOn Polar Pad cooling compared to ice-pack cooling (Example 7)
Protocol: Human patients experiencing osteoarthritic knee joint pain were subjected to two different protocols for intraarticular administration of trans-capsaicin. Temporary pain expected due to administration of capsaicin was analyzed, along with the intraarticular temperature of the knee joint and the temperature of the patient's skin in the area to be cooled.
(§3) One of the protocols utilized a Breg Knee WrapOn Polar Pad (as illustrated in FIG. 1) that utilizes circulating ice-water to achieve cooling, where the pad is placed on skin surrounding the knee in order to cool the knee joint. The other protocol utilized ice-pack cooling, in which the patient's knee was wrapped with a stockinette and then the ice pack was positioned on top of the stockinette so that the ice pack is positioned over the patient's patella to thereby cool the knee joint. The ice pack was a LEADSTAR pain relief reusable cold therapy ice pack (size=6 inches). A temperature probe was placed into the intraarticular space of the patient's knee joint to measure intraarticular temperature of the knee joint. A temperature probe was also placed on the skin in the area to be cooled in order to measure skin temperature in the area to be cooled.
Five human patients suffering from moderate to severe painful bilateral knee osteoarthritis were recruited for this study evaluating the impact that cooling protocol has on the magnitude of temporary pain experienced by the patient due to administration of capsaicin. […] Patients that participated in the study passed the following screening criteria and meet the patient inclusion and exclusion criteria are set forth below. As part of patient screening, patients received an intradermal injection of 100 μL (100 μg) capsaicin into the non-dominant volar forearm. To be eligible to enter the study, patients were able to tolerate the capsaicin injection. Screening patients rated the pain from capsaicin injection at 5, 10, 20, and 30 minutes after injection using a 0-10 Numerical Pain Rating Scale, where “0” equals no pain and “10” equals worst possible pain.
as §3, with “ice pack (having a surface for application to the patient, wherein said surface has a diameter of approximately six inches) is positioned” for “ice pack is positioned”, “knee joint. A temperature” for “knee joint. The ice pack was a LEADSTAR pain relief reusable cold therapy ice pack (size=6 inches). A temperature”, “knee joint. At the discretion of the physician performing the procedure, in order to reduce discomfort for the patient, the protocol authorized the physician to instill a volume of 1-2 cc of 2% w/w lidocaine (without epinephrine) into the skin and subcutaneous tissue of the knee at the site of intra-articular probe insertion. A temperature” for “knee joint. A temperature”
One the first day of the study, patients were randomized so that (i) three patients receiving cooling of the knee joint using the Breg Knee WrapOn Polar Pad and (ii) two patients will receive ice-pack cooling over the patella as set forth above. Patients were subjected to the following procedure: • Placement of intraarticular temperature probe and skin temperature probe. […]

[6] = system: human patients with chronic knee osteoarthritis; assay: Treatment-emergent adverse events, SAEs and laboratory abnormalities after single intra-articular injection (Example 2); format: in vivo; conditions: for All TEAEs, (%) / Arthralgia TEAE, (%) / Hepatic enzyme increased TEAE, (%) / Influenza TEAE, (%) / Joint effusion TEAE, (%) / Nasopharyngitis TEAE, (%) / Upper respiratory tract infection TEAE, (%): through 24 weeks
Protocol: Human patients experiencing osteoarthritic knee joint pain received either placebo, a 0.5 mg intra-articular injection of capsaicin into the osteoarthritic knee joint, or a 1.0 mg intra-articular injection of capsaicin into the osteoarthritic knee joint. […]
as §1
(§4) Safety assessments included treatment-emergent adverse events (TEAEs), serious AEs (SAEs), laboratory abnormalities, and procedural pain ratings (none, mild, moderate, moderately severe, severe). The procedure pain ratings characterize the extent of transient burning sensation experienced by patients due to administration of capsaicin.

[7] = system: human patients with chronic knee osteoarthritis; assay: Procedural pain ratings (none, mild, moderate, moderately severe, severe) after intra-articular injection (Example 2); format: in vivo; conditions: 2 hours after injection of capsaicin (or placebo); all groups
Source text: as §4

[8] = Capsaicin at 0.5 mg Dose, Week 4
[9] = Capsaicin at 0.5 mg Dose, Week 8
[10] = Capsaicin at 0.5 mg Dose, Week 12
[11] = Capsaicin at 0.5 mg Dose, Week 16
[12] = Capsaicin at 0.5 mg Dose, Week 24
[13] = Capsaicin at 1.0 mg Dose, Week 4
[14] = Capsaicin at 1.0 mg Dose, Week 8
[15] = Capsaicin at 1.0 mg Dose, Week 12
[16] = Capsaicin at 1.0 mg Dose, Week 16
[17] = Capsaicin at 1.0 mg Dose, Week 24
[18] = Capsaicin 1.0 mg Dose (n = 71), listed as capsaicin
[19] = Capsaicin at Either 0.5 mg or 1.0 Dose (n = 105)
[20] = Capsaicin at Either 0.5 mg or 1.0 Dose (n = 105), listed as capsaicin

COc1cc(CNC(=O)CCCCC=CC(C)C)ccc1O [Capsaicin, N-[(4-hydroxy-3-methoxyphenyl)methyl]-8-methylnon-6-enamide]
WOMAC B score, least squares mean difference versus placebo [1]: −2.1
PGIC: proportion of patients reporting significant improvement in the index knee ([2]; 0.5 mg dose, P=0.18): 58%
PGIC: proportion of patients reporting significant improvement in the index knee ([2]; 1.0 mg dose, P=0.01): 64%
PGIC: likelihood of significant improvement compared with placebo ([2]; 1.0 mg dose, weeks 4, 8 and 12): greater than two-fold likelihood
PGIC: Odds Ratio vs Placebo [2, 8]: 1.76 (P = 0.18)
PGIC: Odds Ratio vs Placebo [2, 9]: 1.89 (P = 0.14)
PGIC: Odds Ratio vs Placebo [2, 10]: 2.75 (P = 0.03)
PGIC: Odds Ratio vs Placebo [2, 11]: 2.37 (P = 0.05)
PGIC: Odds Ratio vs Placebo [2, 12]: 1.68 (P = 0.23)
PGIC: Odds Ratio vs Placebo [2, 13]: 2.34 (P = 0.01)
PGIC: Odds Ratio vs Placebo [2, 14]: 2.50 (P = 0.008)
PGIC: Odds Ratio vs Placebo [2, 15]: 2.40 (P = 0.01)
PGIC: Odds Ratio vs Placebo [2, 16]: 1.85 (P = 0.07)
PGIC: Odds Ratio vs Placebo [2, 17]: 1.64 (P = 0.15)
PSFS: ability to perform activities versus placebo ([3]; 1.0 mg dose, weeks 4-16): significantly improved patients' ability to perform activities versus placebo
PSFS: LSMD versus Placebo [3, 8]: 0.01 (P = 0.98)
PSFS: LSMD versus Placebo [3, 9]: −0.03 (P = 0.96)
PSFS: LSMD versus Placebo [3, 10]: −0.4 (P = 0.40)
PSFS: LSMD versus Placebo [3, 11]: −0.5 (P = 0.35)
PSFS: LSMD versus Placebo [3, 12]: −0.05 (P = 0.93)
PSFS: LSMD versus Placebo [3, 13]: −1.4 (P = 0.0006)
PSFS: LSMD versus Placebo [3, 14]: −0.9 (P = 0.03)
PSFS: LSMD versus Placebo [3, 15]: −1.1 (P = 0.007)
PSFS: LSMD versus Placebo [3, 16]: −0.9 (P = 0.04)
PSFS: LSMD versus Placebo [3, 17]: −0.5 (P = 0.27)
Improvement in physical function versus placebo ([3]; single injection 1.0 mg dose, moderate to severe osteoarthritis knee pain): statistically significant improvements in physical function for 12-16 weeks
WOMAC C score, least squares mean difference versus placebo [4]: −14.8
Pain due to capsaicin injection, comparison of cooling methods [5]: less when Breg Knee WrapOn Polar Pad cooling was used
All TEAEs, (%) ([6]; Capsaicin 0.5 mg Dose (n = 34)): (47) %
Arthralgia TEAE, (%) ([6]; Capsaicin 0.5 mg Dose (n = 34)): (8.8) %
Hepatic enzyme increased TEAE, (%) ([6]; Capsaicin 0.5 mg Dose (n = 34)): (5.9) %
Influenza TEAE, (%) ([6]; Capsaicin 0.5 mg Dose (n = 34)): (2.9) %
Joint effusion TEAE, (%) ([6]; Capsaicin 0.5 mg Dose (n = 34)): (8.8) %
Nasopharyngitis TEAE, (%) ([6]; Capsaicin 0.5 mg Dose (n = 34)): (2.9) %
Upper respiratory tract infection TEAE, (%) ([6]; Capsaicin 0.5 mg Dose (n = 34)): (5.9) %
All TEAEs, (%) ([6]; Capsaicin 0.5 mg Dose (n = 34), listed as capsaicin): 47%
All TEAEs, (%) ([6]; Capsaicin 1.0 mg Dose (n = 71)): (30) %
Arthralgia TEAE, (%) ([6]; Capsaicin 1.0 mg Dose (n = 71)): (7.0) %
Hepatic enzyme increased TEAE, (%) ([6]; Capsaicin 1.0 mg Dose (n = 71)): (1.4) %
Influenza TEAE, (%) ([6]; Capsaicin 1.0 mg Dose (n = 71)): (2.8) %
Nasopharyngitis TEAE, (%) ([6]; Capsaicin 1.0 mg Dose (n = 71)): (2.8) %
Upper respiratory tract infection TEAE, (%) ([6]; Capsaicin 1.0 mg Dose (n = 71)): (4.2) %
All TEAEs, (%) [6, 18]: 30%
Arthralgia TEAE, (%) [6, 18]: 7.0%
All TEAEs, (%) [6, 19]: (35) %
Arthralgia TEAE, (%) [6, 19]: (7.6) %
Hepatic enzyme increased TEAE, (%) [6, 19]: (2.9) %
Influenza TEAE, (%) [6, 19]: (2.9) %
Joint effusion TEAE, (%) [6, 19]: (2.9) %
Nasopharyngitis TEAE, (%) [6, 19]: (2.9) %
Upper respiratory tract infection TEAE, (%) [6, 19]: (4.8) %
Arthralgia TEAE, (%) [6, 20]: 7.6%
Upper respiratory tract infection TEAE, (%) [6, 20]: 4.8%
Laboratory abnormalities ([6]; all groups, most mild and associated with comorbidities): Few laboratory abnormalities were observed
TEAEs mild in severity, patients ([6]; capsaicin 0.5 mg dose group): 29%
TEAEs moderate in severity, patients ([6]; capsaicin 0.5 mg dose group): 18%
Serious AEs (SAEs) ([6]; capsaicin 0.5 mg dose group, not considered treatment related): One SAE (shoulder pain from osteoarthritis)
TEAEs mild in severity, patients ([6]; capsaicin 1.0 mg dose group): 20%
TEAEs moderate in severity, patients ([6]; capsaicin 1.0 mg dose group): 9.9%
Tolerability / safety profile ([6]; single injection 1.0 mg dose, up to 24 weeks): well tolerated with a safety profile generally comparable to placebo
Patients reporting mild procedural pain [7]: 39%
Patients reporting no procedural pain [7]: 50%
